Measurements from PubChem BioAssay (NCI).
Several values for one entry are separate records, joined by “and”; a condition that tells them apart may be missing. Identical values can stand only once.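 Cultured in 96-well plates, cells were exposed to test compound for 48 hours across five concentrations. GI50 is the concentration that inhibits growth by half. Definition used: TGI = concentration required for complete inhibition of growth.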

What was measured:
Experiment in all cases: inhibition of tumour cell growth, NCI panel, 48 h
SK-MEL-28 melanoma = test system: SK-MEL-28 melanoma
KM12 colon = test system: KM12 colon
EKVX NSCLC = test system: EKVX NSCLC
SF-295 CNS = test system: SF-295 CNS
CCRF-CEM leukemia = test system: CCRF-CEM leukemia
A498 renal = test system: A498 renal
HS 578T breast = test system: HS 578T breast
UO-31 renal = test system: UO-31 renal
HL-60(TB) leukemia = test system: HL-60(TB) leukemia
NCI-H226 lung = test system: NCI-H226 lung

SMILES | GI50 (SK-MEL-28 melanoma) | TGI (SK-MEL-28 melanoma) | GI50 (KM12 colon) | TGI (KM12 colon) | GI50 (EKVX NSCLC) | TGI (EKVX NSCLC) | GI50 (SF-295 CNS) | TGI (SF-295 CNS) | GI50 (CCRF-CEM leukemia) [µM] | TGI (CCRF-CEM leukemia) [µM] | GI50 (A498 renal) | TGI (A498 renal) [µM] | GI50 (HS 578T breast) | TGI (HS 578T breast) | GI50 (UO-31 renal) | TGI (UO-31 renal) | GI50 (HL-60(TB) leukemia) | TGI (HL-60(TB) leukemia) | GI50 (NCI-H226 lung) | TGI (NCI-H226 lung)
CN(c1ccc(C#N)c(Cl)c1)C1CCC(NC(=O)c2ccc(N3CCN(C4CN(c5ccc6c(c5)C(=O)N(C5CCC(=O)NC5=O)C6=O)C4)CC3)cc2)CC1 (stereo not given) | > 100 µM | > 100 µM | > 100 µM | > 100 µM | > 100 µM | > 100 µM | > 100 µM | > 100 µM | > 100 | > 100 | > 100 µM | > 100 | > 100 µM | > 100 µM | > 100 µM | > 100 µM | > 100 µM | > 100 µM | > 100 µM | > 100 µM
Cc1cc(NC(=O)c2cnc(N3CCN(CCOCCOCCOCCOCCC(=O)N[C@H](C(=O)N4C[C@H](O)C[C@H]4C(=O)N[C@@H](C)c4ccc(-c5scnc5C)cc4)C(C)(C)C)CC3)cn2)c2ncccc2c1 | 2.54 µM | 6.7 µM | – | – | 4.9 µM | > 100 µM | 2.23 µM | 6.31 µM | 3.37 | > 100 | 5.06 µM | 29 | 2.59 µM | 9.17 µM | 12.7 µM | > 100 µM | 2.3 µM | 5.71 µM | 28.7 µM | > 100 µM
CC1(C)CC2=C(Sc3ccccc3N2)C(=O)C1C(=O)C(=O)Nc1cc(Cl)ccc1Cl (stereo not given) | – | > 100 µM | – | > 100 µM | – | > 100 µM | – | > 100 µM | – | > 100 | – | > 100 | – | > 100 µM | – | > 100 µM | – | > 100 µM | – | > 100 µM
CCN(CC)C(=S)SSC(=S)N(CC)CC | 15.8 µM and 26.8 µM | 35.4 µM and 97.5 µM | 14.4 µM and 13.7 µM | 30.7 µM and 28.2 µM | 25.7 µM and 25.6 µM | 84.6 µM and 73.3 µM | 11.4 µM and 50.8 µM | > 50.2 µM and 278 µM | 10.3 | 27.6 | 49.9 µM and 109 µM | 228 | 20.9 µM and 105 µM | 64 µM and 501 µM | 15.6 µM and 19.7 µM | 31.9 µM and 49 µM | 25.9 µM and 22.4 µM | 56.3 µM and 52.5 µM | 27.6 µM and 82 µM | > 58.7 µM and 307 µM
COc1cc(/C=C/[N+](=O)[O-])cc(OC)c1OC | 2.23 µM | 4.9 µM | 3.68 µM | 12.3 µM | 13.6 µM | 28.4 µM | 8.52 µM | 23.8 µM | 3.35 | 15.4 | 3.31 µM | 14.6 | 3.46 µM | 28.1 µM | 2.05 µM | 3.91 µM | 4.95 µM | 55.9 µM | 2.1 µM | 5.5 µM
NNc1c2ccccc2nc2ccccc12 | 10.7 µM | 60.7 µM | 4.55 µM | 27.8 µM | 1.89 µM | 26.8 µM | 1.88 µM | 14.9 µM | 0.688 | > 100 | 1.43 µM | 17.5 | 16 µM | > 100 µM | 2.76 µM | 19.5 µM | 1.78 µM | 16.9 µM | 4.26 µM | 43 µM
CCN(C(=O)CN1CCN(c2cc3c(cc2F)c(=O)c(C(=O)O)cn3CC)CC1)c1nc(-c2ccccc2)cs1 | 0.59 µM | > 100 µM | 0.393 µM | > 100 µM | 0.372 µM | > 100 µM | 0.235 µM | 0.746 µM | 0.427 | > 100 | 0.244 µM | 0.917 | 0.842 µM | > 100 µM | 0.266 µM | > 100 µM | 0.199 µM | 0.47 µM | 0.477 µM | > 100 µM
C[C@H]1c2ccccc2CN1CCCOc1cc2c(cc1OCC1CC1)C1(CCCC1)C(N)=N2 | – | – | 2.03 µM | 7.69 µM | 4.33 µM | 10.8 µM | 1.89 µM | 6.71 µM | 1.46 | 6.82 | 1.56 µM | 5.69 | 1.74 µM | 9.44 µM | 1.02 µM | 3.04 µM | 1.21 µM | 3.16 µM | 1.02 µM | 2.9 µM
CCOC1OC(=O)[C@H]2[C@@H]1[C@@H]1CC[C@H]2O1 (stereo not given in full) | 0.378 µM | > 100 µM | > 76.2 µM | > 100 µM | > 100 µM | > 100 µM | > 100 µM | > 100 µM | > 100 | > 100 | > 100 µM | > 100 | > 100 µM | > 100 µM | > 100 µM | > 100 µM | > 100 µM | > 100 µM | > 100 µM | > 100 µM
Cn1nnc2c(C(N)=O)ncn2c1=O | – | > 100 µM | – | > 100 µM | – | > 100 µM | – | > 100 µM | – | > 100 | > 100 µM | > 100 | – | > 100 µM | – | > 100 µM | – | > 100 µM | – | > 100 µM
OCc1ccc(N2CCCC2)cc1Cl | > 100 µM | > 100 µM | > 100 µM | > 100 µM | – | – | 1.78 µM | 37.4 µM | 31.3 | > 100 | 0.147 µM | 0.289 | > 50 µM | > 100 µM | 17.2 µM | 50 µM | 13.7 µM | > 75.6 µM | 0.146 µM | 0.365 µM
Oc1c(Cl)cc(Cl)c2cccnc12 | 3.96 µM | 29.4 µM | 4.58 µM | 16.7 µM | 2.9 µM | 15.2 µM | 1.96 µM | > 100 µM | 2.75 | > 100 | 2.92 µM | 12.1 | 6.88 µM | > 100 µM | 2.5 µM | 9.31 µM | 2.87 µM | 6.65 µM | 3.15 µM | 14.7 µM
COc1ccc2c(c1)C(=O)c1c-2c(N2CCNCC2)nc2ccccc12 | 1.85 µM | 3.46 µM | 2.01 µM | 4.84 µM | 4.65 µM | 17.5 µM | 10.4 µM | 27.4 µM | 1.36 | 2.94 | 7.4 µM | 21.1 | 5.15 µM | 20.9 µM | 2.29 µM | 6.66 µM | 1.8 µM | 5.16 µM | 10.9 µM | 28.9 µM
